In PMC11435058, “Synthesis of New Thiazole-Privileged Chalcones as Tubulin Polymerization Inhibitors with Potential Anticancer Activities” (Pharmaceuticals, 2024):
pIC50: −log10 of the molar value.

Experiments:
Experiment in all cases: NCI-60 anticancer screen (SRB; single dose and five doses)
Conditions in all cases: Homo sapiens
[1] = tested on: HS 578T
[2] = tested on: K-562
[3] = tested on: NCI/ADR-RES
[4] = tested on: NCI-H522
[5] = tested on: SF-268
[6] = tested on: RPMI-8226
[7] = tested on: BT-549
[8] = tested on: RXF 393
[9] = tested on: NCI-H23
[10] = tested on: ACHN
[11] = tested on: EKVX
[12] = tested on: NCI-H322M
[13] = tested on: NCI-H226
[14] = tested on: SN12C
[15] = 48 h, read-out: Growth Percentage

COc1cc(/C=C/C(=O)c2sc(=S)[nH]c2C)cc(OC)c1OC [2p, (E)-1-(4-Methyl-2-Thioxo-2,3-Dihydrothiazol-5-yl)-3-(3,4,5-Trimethoxyphenyl)Prop-2-En-1-One]
GI50 [1]: 2.88 µM
pIC50 [1]: < 4.00
activity at 10 µM [1, 15]: 3.94%
CC50 ([1]; read-out: LC50): > 100 µM
IC (TGI) ([1]; read-out: TGI): 39.8 µM
GI50 ([2]; K562): 3.02 µM
pIC50 ([2]; K562): 5.43
activity at 10 µM ([2]; K562, 48 h, read-out: Growth Percentage): 8.21%
CC50 ([2]; K562, read-out: LC50): > 100 µM
IC (TGI) ([2]; K562, read-out: TGI): > 100 µM
GI50 [3]: 2.4 µM
pIC50 [3]: 5.36
activity at 10 µM [3, 15]: 0.58%
CC50 ([3]; read-out: LC50): > 100 µM
IC (TGI) ([3]; read-out: TGI): 7.41 µM
GI50 ([4]; NCI-H522): 3.16 µM
pIC50 ([4]; NCI-H522): 5.12
activity at 10 µM ([4]; NCI-H522, 48 h, read-out: Growth Percentage): 16.3%
CC50 ([4]; NCI-H522, read-out: LC50): 40.7 µM
IC (TGI) ([4]; NCI-H522, read-out: TGI): 12.3 µM
GI50 ([5]; SF-268): 2.63 µM
pIC50 ([5]; SF-268): 5.19
activity at 10 µM ([5]; SF-268, 48 h, read-out: Growth Percentage): 18.5%
CC50 ([5]; SF-268, read-out: LC50): 55 µM
IC (TGI) ([5]; SF-268, read-out: TGI): 11.2 µM
GI50 ([6]; RPMI-8226): 2.19 µM
pIC50 ([6]; RPMI-8226): 5.35
activity at 10 µM ([6]; RPMI-8226, 48 h, read-out: Growth Percentage): 5.31%
CC50 ([6]; RPMI-8226, read-out: LC50): > 100 µM
IC (TGI) ([6]; RPMI-8226, read-out: TGI): 9.12 µM
GI50 ([7]; BT-549): 2.95 µM
pIC50 ([7]; BT-549): 4.93
activity at 10 µM ([7]; BT-549, 48 h, read-out: Growth Percentage): -11.8%
IC (TGI) ([7]; BT-549, read-out: TGI): 10.7 µM
GI50 ([8]; RXF 393): 2.51 µM
pIC50 ([8]; RXF 393): 4.95
activity at 10 µM ([8]; RXF 393, 48 h, read-out: Growth Percentage): 30.3%
CC50 ([8]; RXF 393, read-out: LC50): 30.9 µM
IC (TGI) ([8]; RXF 393, read-out: TGI): 7.08 µM
GI50 ([9]; NCI-H23): 2.95 µM
pIC50 ([9]; NCI-H23): 5.28
activity at 10 µM ([9]; NCI-H23, 48 h, read-out: Growth Percentage): 7.27%
CC50 ([9]; NCI-H23, read-out: LC50): 44.7 µM
IC (TGI) ([9]; NCI-H23, read-out: TGI): 10.5 µM
GI50 [10]: 3.89 µM
pIC50 [10]: 5.19
activity at 10 µM [10, 15]: 19.6%
CC50 ([10]; read-out: LC50): 55 µM
IC (TGI) ([10]; read-out: TGI): 16.6 µM
GI50 [11]: 4.07 µM
pIC50 [11]: 4.96
activity at 10 µM [11, 15]: 23.4%
CC50 ([11]; read-out: LC50): > 100 µM
IC (TGI) ([11]; read-out: TGI): 22.9 µM
GI50 [12]: 4.57 µM
pIC50 [12]: 4.85
CC50 ([12]; read-out: LC50): 51.3 µM
IC (TGI) ([12]; read-out: TGI): 18.6 µM
GI50 ([13]; NCI-H226): 3.63 µM
pIC50 ([13]; NCI-H226): 4.49
activity at 10 µM ([13]; NCI-H226, 48 h, read-out: Growth Percentage): 16.4%
CC50 ([13]; NCI-H226, read-out: LC50): > 100 µM
IC (TGI) ([13]; NCI-H226, read-out: TGI): 36.3 µM
GI50 [14]: 2.29 µM
pIC50 [14]: 5.41
activity at 10 µM [14, 15]: 7.3%
CC50 ([14]; read-out: LC50): 46.8 µM
IC (TGI) ([14]; read-out: TGI): 9.55 µM
